Data published in patent publication US20020137929A1, “1 - (3-heterocyclylphenyl) isothiourea, -isourea, -guanidine and -amidine herbicidal agents” (Intellectual Property Department, BASF Aktiengesellschaft, priority 1998, published 2002).

What was measured:
[1] = test system: IPOHE (Morningglory, Ivyleaf); experiment: Preemergence herbicidal evaluation; assay type: in vivo, Ipomoea hederacea; details: preemergence, rated 4-5 weeks after treatment, 0-9 scale
Method in brief: (§1)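 Preemergence soil application of compound, sprayed in aqueous acetone at rates equivalent to about 0.0156 to 0.500 kg per hectare onto freshly sown cups. Plant response was judged by eye on a 0-9 scale four to five weeks later.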

ORYSAT (Rice, Tebonnet) = experiment: Postemergence herbicidal evaluation; assay type: in vivo, Oryza sativa, (L.) Tebonnet; details: postemergence
Method in brief: (§2)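 Two-week seedlings sprayed postemergence at 40 psi; formulation: 1:1 acetone/water, 0.5% TWEEN 20; application ≈0.0156–0.500 kg/ha. Greenhouse grow-out, then 0–9 visual scoring at 4–5 weeks.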

[2] = test system: SAGPY (Arrowhead (Pygmaea)); experiment: Postemergence weed control under flooded paddy conditions; assay type: in vivo, Sagittaria pygmaea; details: postemergence weeds, rated 3 to 4 weeks after treatment
Method in brief: (§3)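 Containers holding 3–5 cm weeds and rice at 1.5–2.5 leaves are flooded to 1.5–3 cm above soil. Compound in 50/50 v/v aqueous/acetone is then added directly to the water, about 0.0313–0.500 kg/ha. Plants are kept in the greenhouse and rated 0–9 visually at 3–4 weeks.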

ABUTH (Velvetleaf) = experiment: Postemergence herbicidal evaluation; assay type: in vivo, Abutilon theophrasti; details: postemergence
Method in brief: as §2

ZEAMX (Corn, Field) = experiment: Preemergence herbicidal evaluation; assay type: in vivo, Zea mays; details: preemergence, rated 4-5 weeks after treatment, 0-9 scale
Method in brief: as §1

ECHCG (Barnyardgrass) = experiment: Postemergence herbicidal evaluation; assay type: in vivo, Echinochloa crus-galli; details: postemergence
Method in brief: as §2

MOOVA (Monochoria) = experiment: Preemergence weed control under flooded paddy conditions; assay type: in vivo, Monochoria vaginalis; details: rated 3-4 weeks after treatment
Method in brief: (§4)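 Seeds or propagules sown in silt loam kept flooded 1.5-3 cm; compounds in 50/50 acetone/water pipetted into flood water at about 0.0313 to 0.500 kg/ha. Greenhouse; visual 0-9 rating versus untreated control 3-4 weeks after treatment.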

SETVI (Foxtail, Green) = experiment: Postemergence herbicidal evaluation; assay type: in vivo, Setaria viridis; details: postemergence
Method in brief: as §2

GALAP (Galium) = experiment: Postemergence herbicidal evaluation; assay type: in vivo, Galium aparine; details: postemergence
Method in brief: as §2

CYPIR (Rice Flatsedge) [3] = experiment: Preemergence weed control under flooded paddy conditions; assay type: in vivo, Cyperus iria; details: rated 3-4 weeks after treatment
Method in brief: as §4

CYPSE (Flatsedge) = experiment: Postemergence weed control under flooded paddy conditions; assay type: in vivo, Cyperus serotinus; details: postemergence weeds, rated 3 to 4 weeks after treatment
Method in brief: as §3

[4] = test system: TRZAWR (Wheat, Winter, cv Riband); experiment: Preemergence herbicidal evaluation; assay type: in vivo, Triticum aestivum; details: preemergence, rated 4-5 weeks after treatment, 0-9 scale
Method in brief: as §1

[5] = test system: ECHORC (Watergrass (Calif.)); experiment: Preemergence weed control under flooded paddy conditions; assay type: in vivo, Echinochloa oryzoides; details: rated 3-4 weeks after treatment
Method in brief: as §4

CYPIR (Rice Flatsedge) [6] = experiment: Postemergence weed control under flooded paddy conditions; assay type: in vivo, Cyperus iria; details: postemergence weeds, rated 3 to 4 weeks after treatment
Method in brief: as §3

C=CCN1C(=O)C(CC(=O)OCCF)SC1=Nc1cc(-n2c(=O)cc(C(F)(F)F)n(C)c2=O)c(F)cc1Cl (stereo not shown) [Compound 86, 2-Fluoroethyl 3-allyl-2-{{2-chloro-5-[3,6-dihydro-3-methyl-2,6-dioxo-4-(trifluoromethyl)-1(2H)-pyrimidinyl]-4-fluorophenyl}imino}-4-oxo-5-thiazolidineacetate]
IPOHE rating ([1]; 0.0156 kg/ha): 0.0 | IPOHE rating ([1]; 0.0313 kg/ha): 0.0 | IPOHE rating ([1]; 0.0625 kg/ha): 8.0 | IPOHE rating ([1]; 0.1250 kg/ha): 9.0 | IPOHE rating ([1]; 0.2500 kg/ha): 9.0 | IPOHE rating ([1]; 0.5000 kg/ha): 9.0 | ORYSAT herbicidal rating (ORYSAT (Rice, Tebonnet); rate 0.0156 kg/ha): 3.0 | ORYSAT herbicidal rating (ORYSAT (Rice, Tebonnet); rate 0.0313 kg/ha): 7.5 | ORYSAT herbicidal rating (ORYSAT (Rice, Tebonnet); rate 0.0625 kg/ha): 7.5 | ORYSAT herbicidal rating (ORYSAT (Rice, Tebonnet); rate 0.1250 kg/ha): 8.5 | Herbicidal rating SAGPY ([2]; Rate 0.0313 kg/ha): 5.0 | Herbicidal rating SAGPY ([2]; Rate 0.0625 kg/ha): 9.0 | Herbicidal rating SAGPY ([2]; Rate 0.1250 kg/ha): 9.0 | Herbicidal rating SAGPY ([2]; Rate 0.2500 kg/ha): 9.0 | ABUTH herbicidal rating (ABUTH (Velvetleaf); rate 0.0156 kg/ha): 9.0 | ABUTH herbicidal rating (ABUTH (Velvetleaf); rate 0.0313 kg/ha): 9.0 | ABUTH herbicidal rating (ABUTH (Velvetleaf); rate 0.0625 kg/ha): 9.0 | ABUTH herbicidal rating (ABUTH (Velvetleaf); rate 0.1250 kg/ha): 9.0 | ZEAMX rating (ZEAMX (Corn, Field); 0.0156 kg/ha): 0.0 | ZEAMX rating (ZEAMX (Corn, Field); 0.0313 kg/ha): 0.0 | ZEAMX rating (ZEAMX (Corn, Field); 0.0625 kg/ha): 0.0 | ZEAMX rating (ZEAMX (Corn, Field); 0.1250 kg/ha): 0.0 | ZEAMX rating (ZEAMX (Corn, Field); 0.2500 kg/ha): 4.0 | ZEAMX rating (ZEAMX (Corn, Field); 0.5000 kg/ha): 9.0 | ECHCG herbicidal rating (ECHCG (Barnyardgrass); rate 0.0156 kg/ha): 3.0 | ECHCG herbicidal rating (ECHCG (Barnyardgrass); rate 0.0313 kg/ha): 9.0 | ECHCG herbicidal rating (ECHCG (Barnyardgrass); rate 0.0625 kg/ha): 9.0 | ECHCG herbicidal rating (ECHCG (Barnyardgrass); rate 0.1250 kg/ha): 9.0 | MOOVA herbicidal effect rating (MOOVA (Monochoria); 0.0313 kg/ha): 9.0 | MOOVA herbicidal effect rating (MOOVA (Monochoria); 0.0625 kg/ha): 9.0 | MOOVA herbicidal effect rating (MOOVA (Monochoria); 0.1250 kg/ha): 9.0 | MOOVA herbicidal effect rating (MOOVA (Monochoria); 0.2500 kg/ha): 9.0 | SETVI herbicidal rating (SETVI (Foxtail, Green); rate 0.0156 kg/ha): 8.0 | SETVI herbicidal rating (SETVI (Foxtail, Green); rate 0.0313 kg/ha): 9.0 | SETVI herbicidal rating (SETVI (Foxtail, Green); rate 0.0625 kg/ha): 9.0 | SETVI herbicidal rating (SETVI (Foxtail, Green); rate 0.1250 kg/ha): 9.0 | GALAP herbicidal rating (GALAP (Galium); rate 0.0156 kg/ha): 2.0 | GALAP herbicidal rating (GALAP (Galium); rate 0.0313 kg/ha): 5.0 | GALAP herbicidal rating (GALAP (Galium); rate 0.0625 kg/ha): 9.0 | GALAP herbicidal rating (GALAP (Galium); rate 0.1250 kg/ha): 9.0 | CYPIR herbicidal effect rating (CYPIR (Rice Flatsedge) [3]; 0.0313 kg/ha): 3.0 | CYPIR herbicidal effect rating (CYPIR (Rice Flatsedge) [3]; 0.0625 kg/ha): 7.0 | CYPIR herbicidal effect rating (CYPIR (Rice Flatsedge) [3]; 0.1250 kg/ha): 8.0 | CYPIR herbicidal effect rating (CYPIR (Rice Flatsedge) [3]; 0.2500 kg/ha): 9.0 | Herbicidal rating CYPSE (CYPSE (Flatsedge); Rate 0.0313 kg/ha): 0.0 | Herbicidal rating CYPSE (CYPSE (Flatsedge); Rate 0.0625 kg/ha): 0.0 | Herbicidal rating CYPSE (CYPSE (Flatsedge); Rate 0.1250 kg/ha): 3.0 | Herbicidal rating CYPSE (CYPSE (Flatsedge); Rate 0.2500 kg/ha): 9.0 | TRZAWR rating ([4]; 0.0156 kg/ha): 0.0 | TRZAWR rating ([4]; 0.0313 kg/ha): 0.0 | TRZAWR rating ([4]; 0.0625 kg/ha): 0.0 | TRZAWR rating ([4]; 0.1250 kg/ha): 0.0 | TRZAWR rating ([4]; 0.2500 kg/ha): 2.0 | TRZAWR rating ([4]; 0.5000 kg/ha): 6.0 | ECHORC herbicidal effect rating ([5]; 0.0313 kg/ha): 5.0 | ECHORC herbicidal effect rating ([5]; 0.0625 kg/ha): 6.0 | ECHORC herbicidal effect rating ([5]; 0.1250 kg/ha): 9.0 | ECHORC herbicidal effect rating ([5]; 0.2500 kg/ha): 9.0 | Herbicidal rating CYPIR (CYPIR (Rice Flatsedge) [6]; Rate 0.0313 kg/ha): 3.0 | Herbicidal rating CYPIR (CYPIR (Rice Flatsedge) [6]; Rate 0.0625 kg/ha): 7.0 | Herbicidal rating CYPIR (CYPIR (Rice Flatsedge) [6]; Rate 0.1250 kg/ha): 8.0 | Herbicidal rating CYPIR (CYPIR (Rice Flatsedge) [6]; Rate 0.2500 kg/ha): 9.0

CN1C(=O)C(CC(=O)NS(=O)(=O)c2ccccc2)SC1=Nc1cc(-n2c(=O)cc(C(F)(F)F)n(C)c2=O)c(F)cc1Cl (stereo not shown) [Compound 102, 2-{{2-Chloro-5-[3,6-dihydro-3-methyl-2,6-dioxo-4-(trifluoromethyl)-1(2H)-pyrimidinyl]-4-fluorophenyl}imino}-3-methyl-4-oxo-N-(phenylsulfonyl)-5-thiazolidineacetamide]
IPOHE rating ([1]; 0.0156 kg/ha): 0.0 | IPOHE rating ([1]; 0.0313 kg/ha): 0.0 | IPOHE rating ([1]; 0.0625 kg/ha): 0.0 | IPOHE rating ([1]; 0.2500 kg/ha): 1.0 | IPOHE rating ([1]; 0.5000 kg/ha): 9.0 | Herbicidal rating ORYSAT (ORYSAT (Rice, Tebonnet); rate 0.0156 kg/ha): 2.5 | Herbicidal rating ORYSAT (ORYSAT (Rice, Tebonnet); rate 0.0313 kg/ha): 3.0 | Herbicidal rating ORYSAT (ORYSAT (Rice, Tebonnet); rate 0.0625 kg/ha): 3.0 | Herbicidal rating ORYSAT (ORYSAT (Rice, Tebonnet); rate 0.1250 kg/ha): 3.0 | Herbicidal rating SAGPY ([2]; Rate 0.2500 kg/ha): 0.0 | Herbicidal rating SAGPY ([2]; Rate 0.5000 kg/ha): 0.0 | Herbicidal rating ABUTH (ABUTH (Velvetleaf); rate 0.0156 kg/ha): 7.0 | Herbicidal rating ABUTH (ABUTH (Velvetleaf); rate 0.0313 kg/ha): 9.0 | Herbicidal rating ABUTH (ABUTH (Velvetleaf); rate 0.0625 kg/ha): 9.0 | Herbicidal rating ABUTH (ABUTH (Velvetleaf); rate 0.1250 kg/ha): 9.0 | ZEAMX rating (ZEAMX (Corn, Field); 0.0156 kg/ha): 0.0 | ZEAMX rating (ZEAMX (Corn, Field); 0.0313 kg/ha): 0.0 | ZEAMX rating (ZEAMX (Corn, Field); 0.0625 kg/ha): 0.0 | ZEAMX rating (ZEAMX (Corn, Field); 0.2500 kg/ha): 0.0 | ZEAMX rating (ZEAMX (Corn, Field); 0.5000 kg/ha): 1.0 | Herbicidal rating ECHCG (ECHCG (Barnyardgrass); rate 0.0156 kg/ha): 0.0 | Herbicidal rating ECHCG (ECHCG (Barnyardgrass); rate 0.0313 kg/ha): 1.0 | Herbicidal rating ECHCG (ECHCG (Barnyardgrass); rate 0.0625 kg/ha): 2.0 | Herbicidal rating ECHCG (ECHCG (Barnyardgrass); rate 0.1250 kg/ha): 6.0 | MOOVA herbicidal effect rating (MOOVA (Monochoria); 0.2500 kg/ha): 0.0 | MOOVA herbicidal effect rating (MOOVA (Monochoria); 0.5000 kg/ha): 4.0 | Herbicidal rating SETVI (SETVI (Foxtail, Green); rate 0.0156 kg/ha): 0.0 | Herbicidal rating SETVI (SETVI (Foxtail, Green); rate 0.0313 kg/ha): 1.0 | Herbicidal rating SETVI (SETVI (Foxtail, Green); rate 0.0625 kg/ha): 2.0 | Herbicidal rating SETVI (SETVI (Foxtail, Green); rate 0.1250 kg/ha): 4.0 | Herbicidal rating GALAP (GALAP (Galium); rate 0.0156 kg/ha): 1.0 | Herbicidal rating GALAP (GALAP (Galium); rate 0.0313 kg/ha): 1.0 | Herbicidal rating GALAP (GALAP (Galium); rate 0.0625 kg/ha): 1.0 | Herbicidal rating GALAP (GALAP (Galium); rate 0.1250 kg/ha): 4.0 | CYPIR herbicidal effect rating (CYPIR (Rice Flatsedge) [3]; 0.2500 kg/ha): 2.0 | CYPIR herbicidal effect rating (CYPIR (Rice Flatsedge) [3]; 0.5000 kg/ha): 6.0 | Herbicidal rating CYPSE (CYPSE (Flatsedge); Rate 0.2500 kg/ha): 0.0 | Herbicidal rating CYPSE (CYPSE (Flatsedge); Rate 0.5000 kg/ha): 0.0 | TRZAWR rating ([4]; 0.0156 kg/ha): 0.0 | TRZAWR rating ([4]; 0.0313 kg/ha): 0.0 | TRZAWR rating ([4]; 0.0625 kg/ha): 0.0 | TRZAWR rating ([4]; 0.2500 kg/ha): 0.0 | TRZAWR rating ([4]; 0.5000 kg/ha): 1.0 | ECHORC herbicidal effect rating ([5]; 0.2500 kg/ha): 0.0 | ECHORC herbicidal effect rating ([5]; 0.5000 kg/ha): 2.0 | Herbicidal rating CYPIR (CYPIR (Rice Flatsedge) [6]; Rate 0.2500 kg/ha): 2.0 | Herbicidal rating CYPIR (CYPIR (Rice Flatsedge) [6]; Rate 0.5000 kg/ha): 6.0
